Assays:
Assay in all cases: Test G preemergence/postemergence greenhouse plant response rating 0 to 100
pitted morningglory = assay type: in vivo, Ipomoea lacunosa; conditions: 0 to 100 scale
Text: (§1) Seeds, rhizomes, or plant parts of alfalfa (Medicago ativa), annual bluegrass (Poa annua), bermudagrass (Cynodon dactylon), broadleaf signalgrass (Brachiaria plantaginea), common purslane (Portulaca oleracea), common ragweed (Ambrosia elatior), […] (Paspalum dilatatum), goosegrass (Eleusine indica), guineagrass (Panicum maximum), […] exaltata), johnsongrass (Sorghum halepense), large crabgrass (Digitaria sanguinalis), peanut (Arachis hypoagaea), pitted morningglory (Ipomoea lacunosa), purple nutsedge (Cyperus rotundus), sandbur (Cenchrus echinatus), smooth crabgrass (Digitaria ischaemum) and yellow nutsedge (Cyperus esculentus) were planted into greenhouse pots containing greenhouse planting medium. Each pot contained only one plant species. The test compound was dissolved in a non-phytotoxic solvent and applied preemergence and/or postemergence to the plants. Preemergence applications were made within one day of planting the seeds or plant parts. Postemergence applications were applied when the plants were in the two to four leaf stage (three to twenty cm). Test chemicals were dissolved in a non-phytotoxic solvent and applied preemergence and postemergence to the plants. Untreated control plants and treated plants were placed in the greenhouse and visually evaluated for injury at 13 to 21 days after herbicide application. […] A dash (-) response indicates no test result.

bermudagrass = assay type: in vivo, Cynodon dactylon; conditions: 0 to 100 scale
Text: as §1

large crabgrass = assay type: in vivo, Digitaria sanguinalis; conditions: 0 to 100 scale
Text: as §1

peanut = assay type: in vivo, Arachis hypoagaea; conditions: 0 to 100 scale
Text: as §1

dallisgrass = assay type: in vivo, Paspalum dilatatum; conditions: 0 to 100 scale
Text: as §1

annual bluegrass = assay type: in vivo, Poa annua; conditions: 0 to 100 scale
Text: as §1

smooth crabgrass = assay type: in vivo, Digitaria ischaemum; conditions: 0 to 100 scale
Text: as §1

yellow nutsedge = assay type: in vivo, Cyperus esculentus; conditions: Rate 125 g/ha, 0 to 100 scale
Text: as §1

guineagrass = assay type: in vivo, Panicum maximum; conditions: 0 to 100 scale
Text: as §1

broadleaf signalgrass = assay type: in vivo, Brachiaria plantaginea; conditions: 0 to 100 scale
Text: as §1

goosegrass = assay type: in vivo, Eleusine indica; conditions: 0 to 100 scale
Text: as §1

alfalfa = assay type: in vivo, Medicago ativa; conditions: 0 to 100 scale
Text: as §1

itchgrass = assay type: in vivo, Rottboellia exaltata; conditions: 0 to 100 scale
Text: as §1

common ragweed = assay type: in vivo, Ambrosia elatior; conditions: 0 to 100 scale
Text: as §1

johnsongrass = assay type: in vivo, Sorghum halepense; conditions: 0 to 100 scale
Text: as §1

common purslane = assay type: in vivo, Portulaca oleracea; conditions: 0 to 100 scale
Text: as §1

purple nutsedge = assay type: in vivo, Cyperus rotundus; conditions: Rate 125 g/ha, 0 to 100 scale
Text: as §1

CC(C)Oc1cc(-c2nn3c(c2Cl)CCCC3)c(F)cc1Cl [Compound 21]
Plant response rating, Pit Morninglory (pitted morningglory; POSTEMERGENCE, Rate 125 g/ha): 0 | Plant response rating, Pit Morninglory (pitted morningglory; POSTEMERGENCE, Rate 250 g/ha): 20 | Plant response rating, Pit Morninglory (pitted morningglory; PREEMERGENCE, Rate 125 g/ha): 0 | Plant response rating, Pit Morninglory (pitted morningglory; PREEMERGENCE, Rate 250 g/ha): 20 | Plant response rating, Bermudagrass (bermudagrass; POSTEMERGENCE, Rate 125 g/ha): 0 | Plant response rating, Bermudagrass (bermudagrass; POSTEMERGENCE, Rate 250 g/ha): 0 | Plant response rating, Bermudagrass (bermudagrass; PREEMERGENCE, Rate 125 g/ha): 20 | Plant response rating, Bermudagrass (bermudagrass; PREEMERGENCE, Rate 250 g/ha): 0 | Plant response rating, Large Crabgrass (large crabgrass; POSTEMERGENCE, Rate 125 g/ha): 0 | Plant response rating, Large Crabgrass (large crabgrass; POSTEMERGENCE, Rate 250 g/ha): 0 | Plant response rating, Large Crabgrass (large crabgrass; PREEMERGENCE, Rate 125 g/ha): 100 | Plant response rating, Large Crabgrass (large crabgrass; PREEMERGENCE, Rate 250 g/ha): 60 | Plant response rating, Peanuts (peanut; POSTEMERGENCE, Rate 125 g/ha): 0 | Plant response rating, Peanuts (peanut; POSTEMERGENCE, Rate 250 g/ha): 0 | Plant response rating, Peanuts (peanut; PREEMERGENCE, Rate 125 g/ha): 0 | Plant response rating, Peanuts (peanut; PREEMERGENCE, Rate 250 g/ha): 20 | Plant response rating, Dallisgrass (dallisgrass; POSTEMERGENCE, Rate 125 g/ha): 0 | Plant response rating, Dallisgrass (dallisgrass; POSTEMERGENCE, Rate 250 g/ha): 0 | Plant response rating, Dallisgrass (dallisgrass; PREEMERGENCE, Rate 125 g/ha): 20 | Plant response rating, Dallisgrass (dallisgrass; PREEMERGENCE, Rate 250 g/ha): 40 | Plant response rating, Ann Bluegrass (annual bluegrass; POSTEMERGENCE, Rate 125 g/ha): 0 | Plant response rating, Ann Bluegrass (annual bluegrass; POSTEMERGENCE, Rate 250 g/ha): 0 | Plant response rating, Ann Bluegrass (annual bluegrass; PREEMERGENCE, Rate 125 g/ha): 30 | Plant response rating, Ann Bluegrass (annual bluegrass; PREEMERGENCE, Rate 250 g/ha): 0 | Plant response rating, Smooth Crabgras (smooth crabgrass; POSTEMERGENCE, Rate 125 g/ha): 0 | Plant response rating, Smooth Crabgras (smooth crabgrass; POSTEMERGENCE, Rate 250 g/ha): 0 | Plant response rating, Smooth Crabgras (smooth crabgrass; PREEMERGENCE, Rate 125 g/ha): 70 | Plant response rating, Smooth Crabgras (smooth crabgrass; PREEMERGENCE, Rate 250 g/ha): 20 | Plant response rating, Yellow Nutsedge (yellow nutsedge; POSTEMERGENCE): 0 | Plant response rating, Yellow Nutsedge (yellow nutsedge; PREEMERGENCE): 0 | Plant response rating, Guineagrass (guineagrass; POSTEMERGENCE, Rate 125 g/ha): 0 | Plant response rating, Guineagrass (guineagrass; POSTEMERGENCE, Rate 250 g/ha): 0 | Plant response rating, Guineagrass (guineagrass; PREEMERGENCE, Rate 125 g/ha): 100 | Plant response rating, Guineagrass (guineagrass; PREEMERGENCE, Rate 250 g/ha): 0 | Plant response rating, Brdlf Sgnlgrass (broadleaf signalgrass; POSTEMERGENCE, Rate 125 g/ha): 0 | Plant response rating, Brdlf Sgnlgrass (broadleaf signalgrass; POSTEMERGENCE, Rate 250 g/ha): 0 | Plant response rating, Brdlf Sgnlgrass (broadleaf signalgrass; PREEMERGENCE, Rate 125 g/ha): 0 | Plant response rating, Brdlf Sgnlgrass (broadleaf signalgrass; PREEMERGENCE, Rate 250 g/ha): 0 | Plant response rating, Goosegrass (goosegrass; POSTEMERGENCE, Rate 125 g/ha): 0 | Plant response rating, Goosegrass (goosegrass; POSTEMERGENCE, Rate 250 g/ha): 0 | Plant response rating, Goosegrass (goosegrass; PREEMERGENCE, Rate 125 g/ha): 100 | Plant response rating, Goosegrass (goosegrass; PREEMERGENCE, Rate 250 g/ha): 70 | Plant response rating, Alfalfa Var. (alfalfa; POSTEMERGENCE, Rate 125 g/ha): 0 | Plant response rating, Alfalfa Var. (alfalfa; POSTEMERGENCE, Rate 250 g/ha): 0 | Plant response rating, Alfalfa Var. (alfalfa; PREEMERGENCE, Rate 125 g/ha): 0 | Plant response rating, Alfalfa Var. (alfalfa; PREEMERGENCE, Rate 250 g/ha): 0 | Plant response rating, Itchgrass (itchgrass; POSTEMERGENCE, Rate 125 g/ha): 0 | Plant response rating, Itchgrass (itchgrass; POSTEMERGENCE, Rate 250 g/ha): 0 | Plant response rating, Itchgrass (itchgrass; PREEMERGENCE, Rate 125 g/ha): 60 | Plant response rating, Itchgrass (itchgrass; PREEMERGENCE, Rate 250 g/ha): 0 | Plant response rating, Cmn Ragweed (common ragweed; POSTEMERGENCE, Rate 125 g/ha): 0 | Plant response rating, Cmn Ragweed (common ragweed; POSTEMERGENCE, Rate 250 g/ha): 100 | Plant response rating, Cmn Ragweed (common ragweed; PREEMERGENCE, Rate 125 g/ha): 50 | Plant response rating, Cmn Ragweed (common ragweed; PREEMERGENCE, Rate 250 g/ha): 50 | Plant response rating, Johnsongrass (johnsongrass; POSTEMERGENCE, Rate 125 g/ha): 0 | Plant response rating, Johnsongrass (johnsongrass; POSTEMERGENCE, Rate 250 g/ha): 0 | Plant response rating, Johnsongrass (johnsongrass; PREEMERGENCE, Rate 125 g/ha): 30 | Plant response rating, Johnsongrass (johnsongrass; PREEMERGENCE, Rate 250 g/ha): 0 | Plant response rating, Cmn Purslane (common purslane; POSTEMERGENCE, Rate 125 g/ha): 70 | Plant response rating, Cmn Purslane (common purslane; POSTEMERGENCE, Rate 250 g/ha): 90 | Plant response rating, Cmn Purslane (common purslane; PREEMERGENCE, Rate 125 g/ha): 100 | Plant response rating, Cmn Purslane (common purslane; PREEMERGENCE, Rate 250 g/ha): 0 | Plant response rating, Purple Nutsedge (purple nutsedge; POSTEMERGENCE): 0 | Plant response rating, Purple Nutsedge (purple nutsedge; PREEMERGENCE): 0

From patent US6358885B1, “Substituted phenylheterocyclic herbicides” (Mississippi State University, priority 1992, dated 2002)
